Assay results: patent US10519111B2, “UV absorbing compounds, compositions comprising same and uses thereof” (CORAL SUNSCREEN PTY LTD, priority 2013, dated 2019)

Tests used:
[1] = UV absorption properties (λmax, molar extinction coefficient ε, efficiency E 1%, 1 cm); format: physicochemical; conditions: for shoulder in the λmax column: Tables 5, 10, 13B
[2] = Critical wavelength (λcrit), approximate in-house measurement; format: physicochemical
Excerpt: As the precise test for critical wavelength was unable to be replicated exactly by the inventors due to the need for specialist equipment and a specific calibration of the spectrophotometer, these values are only approximate to a degree. […] This represents a highly useful result and so, compounds based around this benzoyl substitution pattern shown, are especially preferred.

Photostability = format: physicochemical; conditions: Table 13B
[3] = literature value, standardised test; cited from earlier work
[4] = Table 13B, miscellaneous compounds
[5] = Table 13B, values in order of the λmax values
[6] = Table 13B, values in order of the λmax values, in M-1 cm-1
[7] = values in order of the λmax values

SMILES | λmax [1, 4] [nm] | E (1%, 1 cm) [1, 5] | ε [1, 6] | λcrit ([2]; Table 13B) [nm] | Photostability (%) (Photostability) | further results
CCOC(=O)C(=O)C1=CN(c2ccccc2)CCC1(C)C | 332 | 1210 | 34743 | 362 | 68 | –
CC1(C)CCN(c2ccc(N3C=C(C(=O)CCC(F)(F)F)C(C)(C)CC3)cc2)C=C1C(=O)CCC(F)(F)F | 358 | 1090 | 59296 | 379 | 54 | –
CCCCC(CC)CN(c1ccc(C(=O)C2=CN(C(C)(C)C)CCC2(C)C)cc1)c1ccc(C(=O)C2=CN(C(C)(C)C)CCC2(C)C)cc1.Cl (stereo not drawn) | 316 | 653 | 45910 | 370 | 39 | –
CC(C)(C)Oc1ccc(C(=O)C2=CN(C(C)(C)C)CCC2(C)C)cc1 [Compound 158, (4-(tert-butoxy)phenyl)(1-(tert-butyl)-4,4-dimethyl-1,4,5,6-tetrahydropyridin-3-yl)methanone] | – | – | – | – | – | UV λmax [1]: 317 nm; ε (molar extinction coefficient) [1, 7]: 32556 M⁻¹ cm⁻¹; melting point: 98 to 101 °C
CN1C=C(C(=O)c2ccc(N(C)CCCCCCN(C)c3ccc(C(=O)C4=CN(C(C)(C)C)CCC4(C)C)cc3)cc2)C(C)(C)CC1 | – | – | – | 364 | 22 | –
CC1(C)CCN(C(C)(C)C)C=C1C(=O)/C=C/c1cccc(/C=C/C(=O)C2=CN(C(C)(C)C)CCC2(C)C)c1 | 360 | 395 | 20388 | 386 | 95 | –
CCCCC(CC)COC(=O)CCC(=O)C1=CN(c2ccc(N3C=C(C(=O)CCC(=O)OCC(CC)CCCC)C(C)(C)CC3)cc2)CCC1(C)C (stereo not drawn) | 359 | 628 | 45301 | 379 | 52 | –
CCCCC(CC)CN(c1ccc(C(=O)C2=CN(C(C)(C)C)CCC2(C)C)cc1)c1ccc(C(=O)C2=CN(C(C)(C)C)CCC2(C)C)cc1 (stereo not drawn) | 316 | 624 | 41598 | 369 | – | shoulder in the λmax column [1]: ~340 nm; Photostability (%) + Octo (Photostability; with octocrylene (+ Octo)): 90%
CC(C)CN1C=C(C(=O)C(C)(C)C)C(C)(C)CC1 | 309 | 1137 | 28554 | 327 | 60 | –
CCCCC(CC)COC(=O)c1cc(/C=C/C(=O)C2=CN(C(C)(C)C)CCC2(C)C)ccc1/C=C/C(=O)C1=CN(C(C)(C)C)CCC1(C)C (stereo not drawn) | 378 | 460 | 30963 | 388 | 2 | –
CN(C)c1ccc(C(=O)C2=CN(C(C)(C)C)CCC2(C)C)cc1 [Compound 157, (1-(tert-butyl)-4,4-dimethyl-1,4,5,6-tetrahydropyridine-3-yl)(4-(dimethylamino)phenyl)methanone] | – | – | – | – | – | UV λmax [1]: 333 nm; ε (molar extinction coefficient) [1, 7]: 24966 M⁻¹ cm⁻¹; melting point: 162 to 163 °C
CC1(C)CCN(C(C)(C)C)C=C1C(=O)c1ccc(C(=O)C2=CN(C(C)(C)C)CCC2(C)C)cc1 [Compound 159, 1,4-phenylenebis((1-(tert-butyl)-4,4-dimethyl-1,4,5,6-tetrahydropyridin-3-yl)methanone)] | – | – | – | – | – | UV λmax [1]: 317 nm; ε (molar extinction coefficient) [1, 7]: 33982 M⁻¹ cm⁻¹; melting point: 243 °C (dec.)
CC1(C)CCN(C(C)(C)C)C=C1C(=O)c1ccc(C(=O)O)cc1 [Compound 160, 4-(1-(tert-butyl)-4,4-dimethyl-1,4,5,6-tetrahydropyridine-3-carbonyl)benzoic acid] | – | – | – | – | – | UV λmax [1]: 317 nm; ε (molar extinction coefficient) [1, 7]: 17300 M⁻¹ cm⁻¹; melting point: 80 to 83 °C
Cc1ccc(NC(=O)C2=CN(C(C)(C)CC(C)(C)C)CCC2(C)C)cc1NC(=O)C1=CN(C(C)(C)CC(C)(C)C)CCC1(C)C | 311 | 990 | 61479 | 328 | 55 | –
COc1ccc(C(=O)CC(=O)c2ccc(C(C)(C)C)cc2)cc1 [Avobenzone, reference compound] | – | – | – | – | – | critical wavelength, reported [3]: 380 nm; critical wavelength ([2]; values only approximate): 378 nm
CC1(C)CCN(C(C)(C)C)C=C1C(=O)C1=CN(C(C)(C)C)CCC1(C)C [drawing 73] | – | – | – | – | – | λmax ([1]; Table 5, acylation of N-t-Bu enamine): 305 nm; Ε (1%, 1 cm) ([1]; Table 5, values in order of the λmax values): 456; ε ([1]; Table 5, values in order of the λmax values, in M-1 cm-1): 16425; shoulder in the λmax column [1]: 330 nm; λcrit ([2]; Table 5): 351 nm
CC1(C)CCN(c2ccc(C(C)(C)C)cc2)C=C1C(OC(=O)C1c2ccccc2-c2ccccc21)=C1c2ccccc2-c2ccccc21 [Compound 206, (1-(4-(tert-butyl)phenyl)-4,4-dimethyl-1,4,5,6-tetrahydropyridin-3-yl)(9H-fluoren-9-ylidene)methyl 9H-fluorene-9-carboxylate] | – | – | – | – | – | UV λmax [1]: 407 nm; melting point: 145 °C
CCC(=O)C1=CN(c2ccc(OC)cc2)CCC1(C)C [drawing 127] | – | – | – | – | – | E (1%, 1 cm) ([1]; Table 8a): 862; ε ([1]; Table 8a): 23500 M⁻¹ cm⁻¹; λmax ([1]; Table 8a, N-phenyl compounds): 328 nm; λcrit ([2]; Table 8a): 350 nm
COc1ccc(N2C=C(C(=O)c3ccc(F)cc3)C(C)(C)CC2)cc1 [drawing 129] | – | – | – | – | – | E (1%, 1 cm) ([1]; Table 8a): 571; ε ([1]; Table 8a): 19350 M⁻¹ cm⁻¹; λmax ([1]; Table 8a, N-phenyl compounds): 341 nm; λcrit ([2]; Table 8a): 369 nm
CC1(C)CCN(C(C)(C)C)C=C1C(=O)c1ccc(N2CCN(c3ccc(C(=O)C4=CN(C(C)(C)C)CCC4(C)C)cc3)CC2)cc1 | 323 | 830 | 51851 | 356 | – | –
C=CC(=O)C1=CN(c2ccc(OC)cc2)CCC1(C)C [drawing 128] | – | – | – | – | – | E (1%, 1 cm) ([1]; Table 8a): 794; ε ([1]; Table 8a): 21500 M⁻¹ cm⁻¹; λmax ([1]; Table 8a, N-phenyl compounds): 350 nm; λcrit ([2]; Table 8a): 379 nm
COc1cc(/C=C/C(=O)C2=CN(C(C)(C)C)CCC2(C)C)c(OC)cc1/C=C/C(=O)C1=CN(C(C)(C)C)CCC1(C)C | 402 | 559 | 32220 | 391 | – | –
Cc1ccc(N2C=C(C(=O)Nc3ccc(C)c(NC(=O)C4=CN(C(C)(C)C)CCC4(C)C)c3)C(C)(C)CC2)cc1 [drawing 67] | – | – | – | – | – | Ε (1%, 1 cm) ([1]; Table 4): 954; λmax ([1]; Table 4, N-aryl enamines with isocyanates): 314 nm; ε ([1]; Table 4, in M-1 cm-1): 51743; λcrit ([2]; Table 4): 340 nm
Cc1cc(-c2ccc(N3C=C(C(=O)C(F)(F)F)C(C)(C)CC3)c(C)c2)ccc1N1C=C(C(=O)C(F)(F)F)C(C)(C)CC1 | 331 | 1207 | 71432 | 354 | – | –
CC1(C)CCN(C(C)(C)C)C=C1C(=O)Nc1cccc(NC(=O)C2=CN(C(C)(C)C)CCC2(C)C)c1 [drawing 66] | – | – | – | – | – | Ε (1%, 1 cm) ([1]; Table 3): 1129; λmax ([1]; Table 3, compounds from isocyanates or isothiocyanates): 313 nm; ε ([1]; Table 3, in M-1 cm-1): 55779; λcrit ([2]; Table 3): 328 nm

More lines, main results first:

λmax [1, 4] [nm] | E (1%, 1 cm) [1, 5] | ε [1, 6] | λcrit ([2]; Table 13B) [nm] | Photostability (%) (Photostability) | SMILES | further results
315 | 939 | 25447 | 342 | 76 | CC1(C)CCN(C(C)(C)C)C=C1C(=O)c1ccccc1 | –
315 | 782 | 26531 | 349 | 76 | CC1(C)CCN(C(C)(C)C)C=C1C(=O)c1ccc(C(F)(F)F)cc1 | –
316 | 655 | 20919 | 346 | 75 | CC1(C)CCN(C(C)(C)C)C=C1C(=O)c1ccc(F)cc1 | –
311 | 1084 | 33953 | 326 | 33 | Cc1cc(C)c(C(=O)C2=CN(C(C)(C)C)CCC2(C)C)c(C)c1 | –
312 | 1162 | 35700 | 331 | 85 | CC1(C)CCN(C(C)(C)C)C=C1C(=O)c1c(F)cccc1F | –
311 | 998 | 26668 | 344 | 50 | CCOC(=O)C(=O)C1=CN(C(C)(C)C)CCC1(C)C | –
360 | 564 | 27646 | 385 | 77 | CC1(C)CCN(C(C)(C)C)C=C1C(=O)/C=C/c1ccc(C(=O)C2=CN(C(C)(C)C)CCC2(C)C)cc1 | –
317 | 635 | 17272 | 360 | 22 | CC1(C)CCN(C(C)(C)C)C=C1C(=O)c1ccccn1 | –
314 | 951 | 34340 | 333 | 100 | CC1(C)CCN(C(C)(C)C)C=C1C(=O)c1c(F)c(F)c(F)c(F)c1F | –
318 | 551 | 21936 | 362 | – | CCCCC(CC)CNc1ccc(C(=O)C2=CN(C(C)(C)C)CCC2(C)C)cc1 (stereo not drawn) | –
